Data reported in publication PMC8765781, “A platform of assays for the discovery of anti-Zika small-molecules with activity in a 3D-bioprinted outer-blood-retina model” (PLoS ONE, 2022).
Where two headings read alike, the source gives them in different places. *1 amine or outer side, *2 acyl side, *3 side chain or, on linkers, in order; H or OH if unused. Where a SMILES comes first, the peptide text is derived from it. Bridges are numbered along the chain shown (N, C = ends). [ ]: non-standard residue; d: D form. The star is where a group is joined. ξ: configuration not given here. pTerphenylCO(4''-OnC5H11) = CCCCCOc1ccc(-c2ccc(-c3ccc(C(=O)*)cc3)cc2)cc1; Orn(4R-OH,5R-OH) = O=C([C@H](C[C@@H](O)[C@@H](O)N[*:3])N[*:1])[*:2]; hTyr(3S-OH,4S-OH) = N[C@H](C(=O)O)[C@H](O)[C@@H](O)c1ccc(O)cc1; Pro(3S-OH,4S-Me) = C[C@H]1CN[C@H](C(=O)O)[C@H]1O; Hyp = O=C(O)[C@@H]1C[C@@H](O)CN1; ξLac(3-iPr) = CC(C)CC(O)C(=O)O; NMeV = CN[CH](C(=O)O)C(C)C; NMeA = CN[CH](C)C(=O)O; βAla = NCCC(=O)O

Tested on: wild-type ZIKV (Ugandan MR766 strain) in Vero cells
Test: ZIKV cytopathic effect (CPE) inhibition qHTS assay, CellTiter-Glo readout
Assay type: cell-based, Zika virus
[1] = Zika virus, Vero, read-out: Log AC50 (M) (converted)
[2] = Zika virus, Vero, from Hill fit of the response curve, 50% of maximum activity response, 194 cherry-picked compounds, protocol name not given, read-out: AC50
[3] = Zika virus, Vero, potency in log units (Molar) from Hill fit of the response curve, 194 cherry-picked compounds, protocol name not given, read-out: Log AC50 (converted)
[4] = curve class v2 (Inglese et al. 2006)
[5] = difference between neutral response and maximum compound response

Compound | Efficacy | AC50 (Zika virus, Vero) [M] | AC50 [1] [M] | CC-v2 (curve class classification of the dose response curve) | other results
COc1cc(Nc2nc3ccccc3nc2N[S+](=O)([O-])c2ccc(NC(=O)c3ccc(C)c(OC)c3)cc2)cc(OC)c1 [NCGC00346541-08] | -33.022 | 5.8e-05 | 5.8e-05 | – | –
C=C1C(=O)O[C@@H]2C3C(=C(C)[C@@H](O)[C@@H](OC(=O)/C(=C/C)COC(C)=O)[C@@H]12)C(=O)[C@H]1O[C@@]31C (stereo partly drawn) [NCGC00168883-03] | -116.882 | 3.17e-05 | 3.17e-05 | -2.1 | –
C=C[C@H]1[C@H](O[C@@H]2O[C@H](CO)[C@@H](O)[C@H](O)[C@H]2O)OC=C2C(=O)OCC[C@H]21 [NCGC00180755-03] | – | – | – | – | AC50 [2]: 1.28e-05 M; AC50 [3]: 1.28e-05 M; CC-v2 (curve class classification of the dose response curve) [4]: -3; Efficacy [5]: -78.228
COc1cc2occc2c(O[C@@H]2O[C@H](CO)[C@@H](O)[C@H](O)[C@H]2O)c1CCC(=O)O [NCGC00168932-02] | -83.984 | 1.59e-05 | 1.59e-05 | -3 | –
Nc1c([S+](=O)([O-])c2ccccc2)c2nc3ccccc3nc2n1-c1ccc(F)cc1 [NCGC00351779-01] | -26.957 | 7.31e-05 | 7.31e-05 | – | –
CCC(=C(c1ccc(OCCN2CCCC2)cc1)c1ccc(OCCN2CCCC2)cc1)c1ccccc1 [NCGC00408918-01] | -39.621 | 5.8e-05 | 5.8e-05 | -3 | –
C=C(C)C1=C[C@@]2(C)C(=CC1=O)CC[C@@H](O)[C@@H]2C [NCGC00180357-02] | -25.033 | 1.46e-05 | 1.46e-05 | – | –
CC(=O)OC[C@]12C[C@H](OC(=O)CC(C)C)C(C)=C[C@H]1O[C@@H]1[C@H](O)C[C@@]2(C)[C@]12CO2 [NCGC00385002-01] | -46.392 | – | – | – | Log AC50 (M): -5.6492 M; Max Resp: -19.758; AC50 (read-out: AC50): 2.24e-06 M
CC(C)(O)CCc1ccc(OCc2cc(-c3cccc(OC(F)F)c3)c3ncccc3c2)cc1 [NCGC00249759-02] | -26.837 | 3.26e-05 | 3.26e-05 | – | –
Nc1cccc(CNC(=O)c2ccc(Oc3ccc(OCc4cccc(F)c4)cc3)nc2)c1 [NCGC00379156-01] | -30.412 | 7.31e-05 | 7.31e-05 | – | –
CC1=CC2(O)/C=C/C(C)(O)C(O)C(O)/C=C/C(=O)OC23C(=O)NC(CC(C)C)C3C1C (stereo not drawn) [NCGC00381121-01] | -74.853 | 1.59e-05 | 1.59e-05 | -3 | –
COC(=O)[C@]12CCC(C)(C)C[C@H]1[C@H]1C(=O)C=C3[C@@]4(C)C=C(C#N)C(=O)C(C)(C)[C@@H]4CC[C@@]3(C)[C@]1(C)CC2 [NCGC00186460, bardoxolone methyl, reference compound] | – | – | – | – | Identified as active in CPE assay validation set: identified
C[C@@]1(O)[C@H](O)[C@@H](CO)O[C@H]1n1cnc2c(=O)[nH]c(N)nc21 [NCGC00485409-01] | -27.977 | 3.66e-05 | 3.66e-05 | – | –
CC(=O)OC[C@]12C[C@H](O)C(C)=C[C@H]1O[C@@H]1[C@H](O)[C@@H](O)[C@@]2(C)[C@]12CO2 [NCGC00380760-01] | -57.268 | – | – | -1.2 | Log AC50 (M): -4.894 M; Max Resp: -47.163; AC50 (read-out: AC50): 1.28e-05 M
CCCCCOc1cc2c(cc1-c1cc(/C=C/C(=O)O)ccc1O)C(C)(C)CCC2(C)C [NCGC00370868-01] | – | – | – | – | AC50 [2]: 1.84e-05 M; AC50 [3]: 1.84e-05 M; Efficacy [5]: -36.339
C/C(=N\NC(=N)N)c1cc(NC(=O)CCCCCCCCC(=O)Nc2cc(/C(C)=N/NC(=N)N)cc(/C(C)=N/NC(=N)N)c2)cc(/C(C)=N/NC(=N)N)c1 [NCGC00487056-01] | -56.895 | 5.8e-05 | 5.8e-05 | -2.2 | –

Compound | Efficacy | AC50 (Zika virus, Vero) [M] | AC50 [1] [M] | CC-v2 (curve class classification of the dose response curve) | other results
CC1=CC(=O)[C@@H](O)[C@]2(C)C3[C@@H](O)[C@@H]4OC(=O)[C@@H]([C@H]4C)[C@]3(C)C(=O)C[C@@H]12 (stereo partly drawn) [NCGC00384574-01] | -58.007 | 1.61e-06 | 1.61e-06 | -1.2 | –
c1ccc(CNc2nc(N3CCOc4ccccc43)nc3c2CCCC3)cc1 [NCGC00347065-03] | -32.702 | 5.17e-05 | 5.17e-05 | – | –
C=C(C)C(=O)OC1CC2(C)OC(=CC2=O)C(=C)CC2OC(=O)C(=C)C12 (stereo not drawn) [NCGC00381113-01] | – | – | – | – | AC50 [2]: 2.02e-05 M; AC50 [3]: 2.02e-05 M; Efficacy [5]: -29.164
Cc1cc2c(F)c(Oc3ncnn4cc(OCC(C)OC(=O)C(C)N)c(C)c34)ccc2[nH]1 (stereo not drawn) [NCGC00389340-01] | -57.426 | – | – | – | Curve class: -3; Emax (Zika virus, Vero, read-out: Max response): -49.7%
COC1CCCC(C)OC(=O)Cc2cc(O)cc(O)c2C(=O)C1 (stereo not drawn) [NCGC00384664-01] | – | – | – | – | AC50 [2]: 4.53e-05 M; AC50 [3]: 4.53e-05 M; CC-v2 (curve class classification of the dose response curve) [4]: -3; Efficacy [5]: -54.826
CCC(C)C(=O)OC1CC(O)C23C4OCC5(C(O)CC2C1(C)C(O)O4)C3C(=O)CC1(C)C(c2ccoc2)CC2OC215 (stereo not drawn) [NCGC00381227-01] | – | – | – | – | AC50 [2]: 6.32e-06 M; AC50 [3]: 6.32e-06 M; CC-v2 (curve class classification of the dose response curve) [4]: -2.2; Efficacy [5]: -29.737
CCN(CC)C(=O)c1ccc(Nc2nc(OCC3CCCCC3)c3nc[nH]c3n2)cc1 [NCGC00370819-01] | -42.267 | 4.61e-05 | 4.61e-05 | – | –
CCC(C)C1NC(=O)C2CCCN2C(=O)C(CC(C)C)OC(=O)CCNC(=O)C(C)N(C)C(=O)C(C(C)C)N(C)C1=O (stereo not drawn) [NCGC00169957-03] (cyclo([ξLac(3-iPr)]PI[NMeV][NMeA][βAla]); configuration not given here) | -56.609 | 1.93e-05 | 1.93e-05 | -2.2 | –
Cc1cc(C)c2nc(-c3ccccn3)cc(C(=O)Nc3ccc([S+](=O)([O-])Nc4onc(C)c4C)cc3)c2c1 [NCGC00370745-03] | -23.798 | 3.26e-05 | 3.26e-05 | – | –
O=S(=O)(c1ccc(S(=O)(=O)n2cnc3ccccc32)cc1)N1CCCCCC1 [MLS000033224-02] | -29.668 | 3.17e-05 | 3.17e-05 | -3 | –
C[C@H]1CC[C@@]2(OC1)O[C@H]1CC3[C@@H]4CC[C@@H]5C[C@@H](O[C@@H]6O[C@H](CO)[C@@H](O[C@@H]7O[C@H](CO[C@@H]8OC[C@@H](O)[C@H](O)[C@H]8O)[C@@H](O[C@@H]8O[C@H](CO)[C@H](O)[C@H](O)[C@H]8O)[C@H](O)[C@H]7O)[C@H](O)[C@H]6O)CC[C@]5(C)C4CC[C@]3(C)[C@H]1[C@@H]2C (stereo partly drawn) [NCGC00385658-01] | – | – | – | – | AC50 [2]: 3.48e-06 M; AC50 [3]: 3.48e-06 M; Efficacy [5]: -25.029
Cc1cc2sc(NC(=O)Cc3ccccc3)nc2cc1Cl [NCGC00371143-05] | -24.072 | 5.8e-05 | 5.8e-05 | – | –
CCN(CC)C(=O)Nc1ccc(OCC(O)CNC(C)(C)C)c(C(C)=O)c1 (stereo not drawn) [NCGC00344562-02] | -33.868 | 3.26e-05 | 3.26e-05 | -3 | –
CC1=CC(=O)[C@@H](O)[C@]2(C)C3[C@@H](O)[C@@H]4OC(=O)[C@@H]([C@H]4C)[C@]3(C)C(=O)[C@H](O)[C@@H]12 (stereo partly drawn) [NCGC00384766-01] | – | – | – | – | AC50 [2]: 9.04e-06 M; AC50 [3]: 9.04e-06 M; Efficacy [5]: -50.694
CCCCCOc1ccc(-c2ccc(-c3ccc(C(=O)N[C@H]4C[C@@H](O)[C@@H](O)NC(=O)[C@@H]5[C@@H](O)[C@@H](C)CN5C(=O)[C@H]([C@@H](C)O)NC(=O)[C@H]([C@H](O)[C@@H](O)c5ccc(O)cc5)NC(=O)[C@@H]5C[C@@H](O)CN5C(=O)[C@H]([C@@H](C)O)NC4=O)cc3)cc2)cc1 [NCGC00386349-01] ({pTerphenylCO(4''-OnC5H11)}-[Orn(4R-OH,5R-OH)]T[Hyp][hTyr(3S-OH,4S-OH)]T[Pro(3S-OH,4S-Me)]; lactam 1-C) | -31.74 | 1.26e-05 | 1.26e-05 | -2.2 | –
CC(=O)O[C@H]1CC2C(COC(=O)CC(C)C)=CO[C@@H](OC(=O)CC(C)C)C2[C@]12CO2 (stereo partly drawn) [NCGC00385012-01] | -34.82 | 3.17e-05 | 3.17e-05 | -3 | –
